Three sequences from patent US11612634B2 (priority 2020, dated 2023) can be followed below.

For assay [1], the system named is morphine analgesic tolerance, inflammatory pain rat model. Kind of assay: Effect on morphine analgesic tolerance in Carr-induced inflammatory pain rat model. The assay is classed as in vivo. Particulars: for effect of cysteine-mutated peptide on morphine analgesic tolerance: Carr model, with morphine, dose not given. On the procedure: The Carr-induced inflammatory pain model was built according to a published method (Alessandri-Haber N, et al. Neurosci. Vol 29(19), pp. 6217-6288, 2009) for evaluating an analgesic effect of drugs administered by intraplantar injection. Specifically, 6 μL of 1 wt % Carr solution was injected into the rats between the 2nd and 3rd toes of a left hind paw to induce hyperalgesia, which was manifested as plantar swelling and a declined pain threshold of the rats within 1 hour after the injection. Those rats with a PWT lower than 100 gf were considered to be a desired Carr-induced inflammatory pain model, those rats with the PWT higher than 100 gf was removed.
(§1) (1) 24 healthy adult SD rats, weighing 180-220 g, were selected, reinjected with 6 μL of a 1 wt % Carr solution and divided into 4 groups randomly and averagely (i.e., groups A-D). The group A was injected with normal saline; the group B was intradermally injected with 0.1 μg/kg of the short peptide P10581 through the plantar surface of the left hind paw; the group C was intradermally injected with 0.1 μg/kg of the short peptide P10581 and then with 5 mg/kg of morphine 30 min later through the plantar surface of the left hind paw; and the group D was intradermally injected with 0.05 μg/kg of the short peptide P10581, and then with 5 mg/kg of morphine 30 min later through the plantar surface of the left hind paw. 1 h later, the PWT of each group was recorded when the mechanical withdrawal of the left hind paw occurred, and each rat was measured 3-5 times at an interval of 5-10 min.
(§2) (2) The drug was injected every 2 h according to the above-mentioned administration dose and time (seven times in total), and the PWT was recorded.
(S1) By means of molecular biological techniques, two cysteine residues (Cys10 and Cys11) in the short peptide P10581 were replaced with alanine (Ala), and the resulting peptide was named P10581-1 (SEQ ID NO: 2).
(S2) Three cysteine residues (Cys10, Cys11 and Cys17) in the short peptide P10581 were replaced with alanine (Ala), and the resulting peptide was named P10581-2 (SEQ ID NO: 3).
The rat was injected with 6 μL of 1 wt % Carr to establish a Carr-induced inflammatory pain model, and the effect of the short peptides P10581, P10581-1 and P10581-2 on the morphine analgesic tolerance was analyzed according to Experimental Example 1. […]

Assay [2] deals with Carr-induced inflammatory pain rat model. In words: Analgesic effect on mechanical hyperalgesia (PWT) in Carr-induced inflammatory pain rat model. The assay is classed as in vivo. Particulars: 2 μg/kg i.d. plantar, every 2 h, six injections. On the procedure: The mechanical hyperalgesia of rats was measured by 38500-pressure application measurement (PAM) system (Ugo Basile Biological Research Apparatus, Comerio-Varese, Italy), which consisted of a hand-held part and an integrated electronic part. The hand-held part was a force sensor which was designed according to a Randall-Selitto algesimeter. The integrated electronic part was configured to automatically record a maximum PWT applied to the left hind paw of the rats.
The Carr-induced inflammatory pain model was built according to a published method (Alessandri-Haber N, et al. Neurosci. Vol 29(19), pp. 6217-6288, 2009) for evaluating an analgesic effect of drugs administered by intraplantar injection. […] Those rats with a PWT lower than 100 gf were considered to be a desired Carr-induced inflammatory pain model, those rats with the PWT higher than 100 gf was removed.
(S1) A total of 18 healthy adult SD rats, weighing 180-220 g, were selected, numbered on tails and placed in the same cage.
(S2) The rats were maintained in a measuring room for 2 h for adaptation.
The measurement was repeated 3-5 times for each rat with an interval of 5-10 min. The results of multiple PWT measurements were averaged as the Baseline (BL) (unit: g). After that, 6 μL of 1 wt % Carr was intradermally injected into the plantar surface of the hind paw to build an inflammatory pain rat model.
(S4) The PWT of the left hind paw of each rat was measured 1 h after the Carr injection. Rats with a higher inflammatory threshold and rats with a lower inflammatory threshold were mixed and equally divided into three groups (group A, group B and group C), each for six rats, such that any two groups of rats had similar distribution of inflammatory threshold. The groups A, B and C were intradermally injected with normal saline, 5 mg/kg of morphine and 2 μg/kg of the short peptide P10581, respectively, at the plantar surface of the left hind paw. 1 h later, the PWT of the left hind paw of the rats in each group was measured 3-5 times at an interval of 5-10 min. The multiple PWT measurement results were averaged as the practical PWT (unit: g). Then the drug was injected every 2 h according to the above-mentioned administration dose and time, and the corresponding PWT was recorded (six injections in total).
as §1, §2
(S1) A total of 20 healthy adult SD rats (half male and half female), weighing 180-220 g, were selected, numbered on tails and transferred to the same cage.
(S4) The PWT of the left hind paw of each rat was measured 1 h after the Carr injection.

Take “WKCNPNDDKAARPKLKA [P10581-2, P10581 with Cys10, Cys11 and Cys17 replaced with alanine]”: in assay [1], the “effect of cysteine-mutated peptide on morphine analgesic tolerance” value was “no relieving effect on the morphine analgesic tolerance”.

Take “WKCNPNDDKCR [P10583, comparative short peptide, reference compound]”: in assay [2], the “analgesic effect on Carr-induced inflammatory pain threshold (PWT)” value is reported as “completely reverse the Carr-induced inflammatory pain threshold” and the “analgesic tolerance after repeated injection” value is on record as “without developing the analgesic tolerance”. For the same sequence, the “effect on morphine analgesic tolerance” value in assay [1] (0.1 μg/kg peptide i.d. 30 min before 5 mg/kg morphine, every 2 h) was “no relieving effect”.

Consider “WKCNPNDDKAARPKLKC [P10581-1, P10581 with Cys10 and Cys11 replaced with alanine]”, for which the “effect of cysteine-mutated peptide on morphine analgesic tolerance” value in assay [1] is “merely partially relieve the morphine analgesic tolerance”. For the same sequence, the “decrease in the analgesic effect compared to P10581” value in assay [1] (after 8 injections, with morphine (FIG. 5C)) stood at 57.6%.
